Test results taken from patent US6355799B1, “Substituted benzene compounds, process for their preparation, and herbicidal and defoliant compositions containing them” (ISK Americas Incorporated, priority 1997, dated 2002).

Assays:
Assay type in all cases: in vivo
[1] = test system: redroot pigweed (Amaranthus retroflexus, AMARE); experiment: Pre-emerge test, greenhouse herbicide activity screening; conditions: rating scale 0-100, 14 days after application
Outline: (§1)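 Rating: 0–100 visual injury, 14 DAA. Application: acetone, 187 l/ha, 15–1000 g ai/ha, flat-fan track sprayer with nozzle 40–45 cm above soil or canopy. Post-emerge runs used 0.25% v/v surfactant on 2–3 leaf plants.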

[2] = test system: barnyardgrass (Echinochloa crus-galli, ECHCG); experiment: as above; conditions: rating scale 0-100, 14 days after application
Outline: (§2)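 Applied at 15–1000 g ai/ha from acetone in 187 l/ha spray volume. Post-emergence applications included 0.25% v/v non-ionic surfactant and reached plants sown 8–21 days before. Pre-emergence applications were incorporated by surface watering. Efficacy or crop damage was rated on a 0–100 scale after 14 days.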

[3] = test system: common ragweed (Ambrosia artemisizfolia L., AMBEL); experiment: as above; conditions: rating scale 0-100, 14 days after application
Outline: as §2

[4] = test system: green foxtail (Setaria viridis, SETVI); experiment: as above; conditions: rating scale 0-100, 14 days after application
Outline: as §2

[5] = test system: ivyleaf morningglory (Ipomoea hederacea, IPOHE); experiment: as above; conditions: rating scale 0-100, 14 days after application
Outline: as §2

[6] = test system: johnsongrass (Sorghum halepense, SORHA); experiment: as above; conditions: rating scale 0-100, 14 days after application
Outline: as §2

[7] = test system: lambsquarters (Chenopodium album, CHEAL); experiment: as above; conditions: rating scale 0-100, 14 days after application
Outline: as §2

[8] = test system: large crabgrass (Digitaria sanguinalis, DIGSA); experiment: as above; conditions: rating scale 0-100, 14 days after application
Outline: as §2

[9] = test system: sicklepod (Cassia obtusifolia, CASOB); experiment: as above; conditions: rating scale 0-100, 14 days after application
Outline: as §2

[10] = test system: velvetleaf (Abutilon theophrasti, ABUTH); experiment: as above; conditions: rating scale 0-100, 14 days after application
Outline: as §2

[11] = test system: field corn (Zea mays L., var. Dekalb 535, CORN); experiment: Pre-emerge test, crop safety; conditions: rating scale 0-100, 14 days after application
Outline: (§3)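 Herbicidal damage is scored 0 (none) to 100 (complete plant death) two weeks after a simulated field spray. Rates span 15–1000 g ai/ha, delivered in acetone at 187 l/ha. For post-emergence treatments, plants have 2–3 leaves and the spray carries 0.25% v/v non-ionic surfactant.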

[12] = test system: upland rice (Oryza sp., var. Tebonnet, RICE); experiment: Pre-emerge test, crop safety; conditions: rating scale 0-100, 14 days after application
Outline: as §3

[13] = test system: barnyardgrass (Echinochloa crus-galli, ECHCG); experiment: Post-emerge test, greenhouse herbicide activity screening; conditions: rating scale 0-100 (0 no damage, 100 complete death), 14 days after application
Outline: as §1

[14] = test system: common ragweed (Ambrosia artemisizfolia L., AMBEL); experiment: as above; conditions: rating scale 0-100 (0 no damage, 100 complete death), 14 days after application
Outline: as §1

[15] = test system: green foxtail (Setaria viridis, SETVI); experiment: as above; conditions: rating scale 0-100 (0 no damage, 100 complete death), 14 days after application
Outline: as §1

[16] = test system: ivyleaf morningglory (Ipomoea hederacea, IPOHE); experiment: as above; conditions: rating scale 0-100 (0 no damage, 100 complete death), 14 days after application
Outline: as §1

[17] = test system: johnsongrass (Sorghum halepense, SORHA); experiment: as above; conditions: rating scale 0-100 (0 no damage, 100 complete death), 14 days after application
Outline: as §1

[18] = test system: lambsquarters (Chenopodium album, CHEAL); experiment: as above; conditions: rating scale 0-100 (0 no damage, 100 complete death), 14 days after application
Outline: as §1

[19] = test system: large crabgrass (Digitaria sanguinalis, DIGSA); experiment: as above; conditions: rating scale 0-100 (0 no damage, 100 complete death), 14 days after application
Outline: as §1

[20] = test system: redroot pigweed (Amaranthus retroflexus, AMARE); experiment: as above; conditions: rating scale 0-100 (0 no damage, 100 complete death), 14 days after application
Outline: as §1

[21] = test system: sicklepod (Cassia obtusifolia, CASOB); experiment: as above; conditions: rating scale 0-100 (0 no damage, 100 complete death), 14 days after application
Outline: as §1

[22] = test system: velvetleaf (Abutilon theophrasti, ABUTH); experiment: as above; conditions: rating scale 0-100 (0 no damage, 100 complete death), 14 days after application
Outline: as §1

[23] = test system: field corn (Zea mays L., var. Dekalb 535, CORN); experiment: Post-emerge test, crop safety; conditions: rating scale 0-100 (0 no damage, 100 complete death), 14 days after application
Outline: as §2

[24] = test system: upland rice (Oryza sp., var. Tebonnet, RICE); experiment: Post-emerge test, crop safety; conditions: rating scale 0-100 (0 no damage, 100 complete death), 14 days after application
Outline: as §2

For COc1c(Cl)cc(F)c(-n2c(=O)cc(C(F)(F)F)n(C)c2=O)c1CC(C)(Cl)C(=O)OCC(C)C (stereo not drawn) [14-40], which “Pre-emerge herbicidal activity, phytotoxicity rating AMARE” value ([1]; 63 g ai/ha) is on record?
The value was 100.

What about the “Pre-emerge herbicidal activity, phytotoxicity rating AMARE” value ([1]; 250 g ai/ha) of the same compound?
Its value is 100.

What about the “Pre-emerge herbicidal activity, phytotoxicity rating ECHCG” value ([2]; 63 g ai/ha) of the same compound?
Its value is 10.

What about the “Pre-emerge herbicidal activity, phytotoxicity rating ECHCG” value ([2]; 250 g ai/ha) of the same compound?
Its value is 80.

What about the “Pre-emerge herbicidal activity, phytotoxicity rating AMBEL” value ([3]; 63 g ai/ha) of the same compound?
Its value is 30.

And the “Pre-emerge herbicidal activity, phytotoxicity rating AMBEL” value ([3]; 250 g ai/ha)?
Its value is 90.

What about the “Pre-emerge herbicidal activity, phytotoxicity rating SETVI” value ([4]; 63 g ai/ha) of the same compound?
Its value is 50.

What about the “Pre-emerge herbicidal activity, phytotoxicity rating SETVI” value ([4]; 250 g ai/ha) of the same compound?
The value was 100.

What about the “Pre-emerge herbicidal activity, phytotoxicity rating IPOHE” value ([5]; 63 g ai/ha) of the same compound?
The value was 0.

And the “Pre-emerge herbicidal activity, phytotoxicity rating IPOHE” value ([5]; 250 g ai/ha)?
Its value is 0.

What about the “Pre-emerge herbicidal activity, phytotoxicity rating SORHA” value ([6]; 63 g ai/ha) of the same compound?
Its value is 0.

What about the “Pre-emerge herbicidal activity, phytotoxicity rating SORHA” value ([6]; 250 g ai/ha) of the same compound?
Its value is 40.

What about the “Pre-emerge herbicidal activity, phytotoxicity rating CHEAL” value ([7]; 63 g ai/ha) of the same compound?
The value was 95.

And the “Pre-emerge herbicidal activity, phytotoxicity rating CHEAL” value ([7]; 250 g ai/ha)?
The value was 100.

And the “Pre-emerge herbicidal activity, phytotoxicity rating DIGSA” value ([8]; 63 g ai/ha)?
Its value is 60.

What about the “Pre-emerge herbicidal activity, phytotoxicity rating DIGSA” value ([8]; 250 g ai/ha) of the same compound?
The value was 100.

What about the “Pre-emerge herbicidal activity, phytotoxicity rating CASOB” value ([9]; 63 g ai/ha) of the same compound?
Its value is 0.

And the “Pre-emerge herbicidal activity, phytotoxicity rating CASOB” value ([9]; 250 g ai/ha)?
The value was 0.

What about the “Pre-emerge herbicidal activity, phytotoxicity rating ABUTH” value ([10]; 63 g ai/ha) of the same compound?
Its value is 100.

And the “Pre-emerge herbicidal activity, phytotoxicity rating ABUTH” value ([10]; 250 g ai/ha)?
Its value is 100.

What about the “Pre-emerge phytotoxicity rating, crop damage CORN” value ([11]; 63 g ai/ha) of the same compound?
The value was 0.

And the “Pre-emerge phytotoxicity rating, crop damage CORN” value ([11]; 250 g ai/ha)?
The value was 0.

And the “Pre-emerge phytotoxicity rating, crop damage RICE” value ([12]; 63 g ai/ha)?
Its value is 20.

What about the “Pre-emerge phytotoxicity rating, crop damage RICE” value ([12]; 250 g ai/ha) of the same compound?
Its value is 60.

What about the “Post-emerge Herbicidal Activity, phytotoxicity rating ECHCG” value ([13]; Rate 63 g ai/ha) of the same compound?
The value was 100.

And the “Post-emerge Herbicidal Activity, phytotoxicity rating ECHCG” value ([13]; Rate 250 g ai/ha)?
Its value is 100.

What about the “Post-emerge Herbicidal Activity, phytotoxicity rating AMBEL” value ([14]; Rate 63 g ai/ha) of the same compound?
Its value is 90.

What about the “Post-emerge Herbicidal Activity, phytotoxicity rating AMBEL” value ([14]; Rate 250 g ai/ha) of the same compound?
Its value is 100.

What about the “Post-emerge Herbicidal Activity, phytotoxicity rating SETVI” value ([15]; Rate 63 g ai/ha) of the same compound?
The value was 85.

And the “Post-emerge Herbicidal Activity, phytotoxicity rating SETVI” value ([15]; Rate 250 g ai/ha)?
The value was 99.

What about the “Post-emerge Herbicidal Activity, phytotoxicity rating IPOHE” value ([16]; Rate 63 g ai/ha) of the same compound?
Its value is 30.

And the “Post-emerge Herbicidal Activity, phytotoxicity rating IPOHE” value ([16]; Rate 250 g ai/ha)?
Its value is 60.

And the “Post-emerge Herbicidal Activity, phytotoxicity rating SORHA” value ([17]; Rate 63 g ai/ha)?
The value was 20.

What about the “Post-emerge Herbicidal Activity, phytotoxicity rating SORHA” value ([17]; Rate 250 g ai/ha) of the same compound?
The value was 20.

What about the “Post-emerge Herbicidal Activity, phytotoxicity rating CHEAL” value ([18]; Rate 63 g ai/ha) of the same compound?
Its value is 100.

And the “Post-emerge Herbicidal Activity, phytotoxicity rating CHEAL” value ([18]; Rate 250 g ai/ha)?
Its value is 100.

And the “Post-emerge Herbicidal Activity, phytotoxicity rating DIGSA” value ([19]; Rate 63 g ai/ha)?
The value was 20.

What about the “Post-emerge Herbicidal Activity, phytotoxicity rating DIGSA” value ([19]; Rate 250 g ai/ha) of the same compound?
Its value is 40.

What about the “Post-emerge Herbicidal Activity, phytotoxicity rating AMARE” value ([20]; Rate 63 g ai/ha) of the same compound?
The value was 100.

What about the “Post-emerge Herbicidal Activity, phytotoxicity rating AMARE” value ([20]; Rate 250 g ai/ha) of the same compound?
The value was 100.

And the “Post-emerge Herbicidal Activity, phytotoxicity rating CASOB” value ([21]; Rate 63 g ai/ha)?
The value was 20.

And the “Post-emerge Herbicidal Activity, phytotoxicity rating CASOB” value ([21]; Rate 250 g ai/ha)?
The value was 60.

And the “Post-emerge Herbicidal Activity, phytotoxicity rating ABUTH” value ([22]; Rate 63 g ai/ha)?
The value was 90.

What about the “Post-emerge Herbicidal Activity, phytotoxicity rating ABUTH” value ([22]; Rate 250 g ai/ha) of the same compound?
Its value is 100.

And the “Post-emerge phytotoxicity rating CORN (crop damage)” value ([23]; Rate 63 g ai/ha)?
The value was 35.

And the “Post-emerge phytotoxicity rating CORN (crop damage)” value ([23]; Rate 250 g ai/ha)?
Its value is 70.

What about the “Post-emerge phytotoxicity rating RICE (crop damage)” value ([24]; Rate 63 g ai/ha) of the same compound?
Its value is 15.

And the “Post-emerge phytotoxicity rating RICE (crop damage)” value ([24]; Rate 250 g ai/ha)?
The value was 75.
